Laboratory results as given in US6388071B2, “Alkynyl phenyl heteroaromatic glucokinase activators” (Hoffmann-La Roche Inc., priority 2000, dated 2002).

Row | SMILES | melting point [°C]
1 | COCC#Cc1ccc(C(CC2CCCC2)C(=O)Nc2nccs2)cc1 (stereo not drawn) [Example 3, 3-Cyclopentyl-2-[4-(3-methoxy-prop-1-ynyl)-phenyl]-N-thiazol-2-yl-propionamide] | 170 to 172
2 | CC(O)CC#Cc1ccc(C(CC2CCCC2)C(=O)Nc2nccs2)cc1 (stereo not drawn) [Example 5, 3-Cyclopentyl-2-[4-(4-hydroxy-pent-1-ynyl)-phenyl]-N-thiazol-2-yl-propionamide] | 162 to 163
3 | O=C(Nc1nccs1)C(CC1CCCC1)c1ccc(C#CCO)cc1 (stereo not drawn) [Example 6, 3-Cyclopentyl-2-[4-(3-hydroxy-prop-1-ynyl)-phenyl]-N-thiazol-2-yl-propionamide] | 220 to 222
4 | CN(C)CC#Cc1ccc(C(CC2CCCC2)C(=O)Nc2nccs2)cc1 (stereo not drawn) [Example 7] | 164 to 167
5 | O=C(Nc1nccs1)C(CC1CCCC1)c1ccc(C#Cc2cncnc2)cc1 (stereo not drawn) [Example 10, 3-Cyclopentyl-2-(4-pyrimidin-5-ylethynyl-phenyl)-N-thiazol-2-yl-propionamide] | 149 to 151
6 | O=C(Nc1nccs1)C(CC1CCCC1)c1ccc(C#CC2(O)CCCCC2)cc1 (stereo not drawn) [Example 2, 3-Cyclopentyl-2-[4-(1-hydroxy-cyclohexylethynyl)-phenyl]-N-thiazol-2-yl-propionamide] | 172 to 173
7 | O=C(Nc1nccs1)C(CC1CCCC1)c1ccc(C#Cc2ccccn2)cc1 (stereo not drawn) [Example 9, 3-Cyclopentyl-2-(4-pyridin-2-ylethynyl-phenyl)-N-thiazol-2-yl-propionamide] | 185 to 187
8 | CCC(C)(O)C#Cc1ccc(C(CC2CCCC2)C(=O)Nc2nccs2)cc1 (stereo not drawn) [Example 4, 3-Cyclopentyl-2-[4-(3-hydroxy-3-methyl-pent-1-ynyl)-phenyl]-N-thiazol-2-yl-propionamide] | 172 to 174
9 | C#Cc1ccc(C(CC2CCCC2)C(=O)Nc2nccs2)cc1 (stereo not drawn) [Example 1, 3-Cyclopentyl-2-(4-ethynyl-phenyl)-N-thiazol-2-yl-propionamide] | 181 to 183
